From ChEMBL document CHEMBL3046559, “Sterile oat (Avena sterilis L.) cross-resistance profile to ACCase-inhibiting herbicides in Greece” (2012)

Experiments:
Format in all cases: functional
Avena sterilis [1] = assay: Herbicidal activity against Avena sterilis accession P17 assessed as weed survival at 1 times field recommended herbicide dose
Avena sterilis [2] = assay: Herbicidal activity against Avena sterilis accession P08 assessed as weed survival at 1 times field recommended herbicide dose
Avena sterilis [3] = assay: Herbicidal activity against Avena sterilis accession P21S assessed as weed survival at 1/32 times field recommended herbicide dose
Avena sterilis [4] = assay: Herbicidal activity against Avena sterilis accession P06S assessed as weed survival at 1/32 times field recommended herbicide dose
Avena sterilis [5] = assay: Herbicidal activity against Avena sterilis accession P22 assessed as weed survival at 32 times field recommended herbicide dose
Avena sterilis [6] = assay: Herbicidal activity against Avena sterilis accession P20 assessed as weed survival at 32 times field recommended herbicide dose
Avena sterilis [7] = assay: Herbicidal activity against Avena sterilis accession P18 assessed as weed survival at 32 times field recommended herbicide dose
Avena sterilis [8] = assay: Herbicidal activity against Avena sterilis accession P03 assessed as weed survival at 1 times field recommended herbicide dose
Avena sterilis [9] = assay: Herbicidal activity against Avena sterilis accession P02 assessed as weed survival at 1 times field recommended herbicide dose
Avena sterilis [10] = assay: Herbicidal activity against Avena sterilis accession P01 assessed as weed survival at 1 times field recommended herbicide dose
Avena sterilis [11] = assay: Herbicidal activity against Avena sterilis accession P19S assessed as induction of weed mortality
Avena sterilis [12] = assay: Herbicidal activity against Avena sterilis accession P13S assessed as induction of weed mortality
Avena sterilis [13] = assay: Herbicidal activity against Avena sterilis accession P06S assessed as induction of weed mortality
Avena sterilis [14] = assay: Herbicidal activity against Avena sterilis accession P22 assessed as induction of weed mortality
Avena sterilis [15] = assay: Herbicidal activity against Avena sterilis accession P20 assessed as induction of weed mortality
Avena sterilis [16] = assay: Herbicidal activity against Avena sterilis accession P16 assessed as induction of weed mortality
Avena sterilis [17] = assay: Herbicidal activity against Avena sterilis accession P14 assessed as induction of weed mortality
Avena sterilis [18] = assay: Herbicidal activity against Avena sterilis accession P11 assessed as induction of weed mortality
Avena sterilis [19] = assay: Herbicidal activity against Avena sterilis accession P07 assessed as induction of weed mortality
Avena sterilis [20] = assay: Herbicidal activity against Avena sterilis accession P04 assessed as induction of weed mortality
Avena sterilis [21] = assay: Herbicidal activity against Avena sterilis accession P16 assessed as weed survival at 8 times field recommended herbicide dose
Avena sterilis [22] = assay: Herbicidal activity against Avena sterilis accession P15 assessed as weed survival at 8 times field recommended herbicide dose
Avena sterilis [23] = assay: Herbicidal activity against Avena sterilis accession P16 assessed as weed survival at 32 times field recommended herbicide dose
Avena sterilis [24] = assay: Herbicidal activity against Avena sterilis accession P12 assessed as weed survival at 32 times field recommended herbicide dose
Avena sterilis [25] = assay: Herbicidal activity against Avena sterilis accession P07 assessed as weed survival at 32 times field recommended herbicide dose
Avena sterilis [26] = assay: Herbicidal activity against Avena sterilis accession P05 assessed as weed survival at 32 times field recommended herbicide dose
Avena sterilis [27] = assay: Herbicidal activity against Avena sterilis accession P03 assessed as weed survival at 32 times field recommended herbicide dose
Avena sterilis [28] = assay: Herbicidal activity against Avena sterilis accession P02 assessed as weed survival at 32 times field recommended herbicide dose
Avena sterilis [29] = assay: Herbicidal activity against Avena sterilis accession P21S assessed as weed survival at 1/16 times field recommended herbicide dose
Avena sterilis [30] = assay: Herbicidal activity against Avena sterilis accession P10S assessed as weed survival at 1/16 times field recommended herbicide dose
Avena sterilis [31] = assay: Herbicidal activity against Avena sterilis accession P22 assessed as weed survival at 16 times field recommended herbicide dose
Avena sterilis [32] = assay: Herbicidal activity against Avena sterilis accession P20 assessed as weed survival at 16 times field recommended herbicide dose
Avena sterilis [33] = assay: Herbicidal activity against Avena sterilis accession P18 assessed as weed survival at 16 times field recommended herbicide dose
Avena sterilis [34] = assay: Herbicidal activity against Avena sterilis accession P17 assessed as weed survival at 16 times field recommended herbicide dose
Avena sterilis [35] = assay: Herbicidal activity against Avena sterilis accession P15 assessed as weed survival at 16 times field recommended herbicide dose
Avena sterilis [36] = assay: Herbicidal activity against Avena sterilis accession P12 assessed as weed survival at 16 times field recommended herbicide dose
Avena sterilis [37] = assay: Herbicidal activity against Avena sterilis accession P09 assessed as weed survival at 16 times field recommended herbicide dose
Avena sterilis [38] = assay: Herbicidal activity against Avena sterilis accession P08 assessed as weed survival at 16 times field recommended herbicide dose
Avena sterilis [39] = assay: Herbicidal activity against Avena sterilis accession P07 assessed as weed survival at 16 times field recommended herbicide dose
Avena sterilis [40] = assay: Herbicidal activity against Avena sterilis accession P05 assessed as weed survival at 16 times field recommended herbicide dose
Avena sterilis [41] = assay: Herbicidal activity against Avena sterilis accession P04 assessed as weed survival at 16 times field recommended herbicide dose
Avena sterilis [42] = assay: Herbicidal activity against Avena sterilis accession P03 assessed as weed survival at 16 times field recommended herbicide dose
Avena sterilis [43] = assay: Herbicidal activity against Avena sterilis accession P01 assessed as weed survival at 16 times field recommended herbicide dose
Avena sterilis [44] = assay: Herbicidal activity against Avena sterilis accession P19S assessed as weed survival at 1/8 times field recommended herbicide dose
Avena sterilis [45] = assay: Herbicidal activity against Avena sterilis accession P22 assessed as weed survival at 8 times field recommended herbicide dose
Avena sterilis [46] = assay: Herbicidal activity against Avena sterilis accession P20 assessed as weed survival at 8 times field recommended herbicide dose
Avena sterilis [47] = assay: Herbicidal activity against Avena sterilis accession P02 assessed as weed survival at 8 times field recommended herbicide dose
Avena sterilis [48] = assay: Herbicidal activity against Avena sterilis accession P01 assessed as weed survival at 8 times field recommended herbicide dose
Avena sterilis [49] = assay: Herbicidal activity against Avena sterilis accession P21S assessed as weed survival at 1/4 times field recommended herbicide dose
Avena sterilis [50] = assay: Herbicidal activity against Avena sterilis accession P13S assessed as weed survival at 1/4 times field recommended herbicide dose
Avena sterilis [51] = assay: Herbicidal activity against Avena sterilis accession P16 assessed as weed survival at 4 times field recommended herbicide dose
Avena sterilis [52] = assay: Herbicidal activity against Avena sterilis accession P14 assessed as weed survival at 4 times field recommended herbicide dose
Avena sterilis [53] = assay: Herbicidal activity against Avena sterilis accession P11 assessed as weed survival at 4 times field recommended herbicide dose
Avena sterilis [54] = assay: Herbicidal activity against Avena sterilis accession P09 assessed as weed survival at 4 times field recommended herbicide dose
Avena sterilis [55] = assay: Herbicidal activity against Avena sterilis accession P06S assessed as weed survival at 1 times field recommended herbicide dose
Avena sterilis [56] = assay: Herbicidal activity against Avena sterilis accession P20 assessed as weed survival at 1 times field recommended herbicide dose
Avena sterilis [57] = assay: Herbicidal activity against Avena sterilis accession P03 assessed as weed survival at 4 times field recommended herbicide dose
Avena sterilis [58] = assay: Herbicidal activity against Avena sterilis accession P01 assessed as weed survival at 4 times field recommended herbicide dose

## C#CCOC(=O)[C@@H](C)Oc1ccc(Oc2ncc(Cl)cc2F)cc1 [CLODINAFOP PROPARGYL]
Avena sterilis [1]
  Survival: 97%
Avena sterilis [2]
  Survival: 100%
Avena sterilis [3]
  Survival: 97%
Avena sterilis [4]
  Survival: 100%
Avena sterilis [5]
  Survival: 0%
Avena sterilis [6]
  Survival: 27%
Avena sterilis [7]
  Survival: 20%
Avena sterilis [8]
  Survival: 100%
Avena sterilis [9]
  Survival: 97%
Avena sterilis [10]
  Survival: 97%
Avena sterilis [11]
  GR50: 29 gAi/ha
Avena sterilis [12]
  GR50: 5 gAi/ha
Avena sterilis [13]
  GR50: 9 gAi/ha
Avena sterilis [14]
  GR50: 122 gAi/ha
Avena sterilis [15]
  GR50: 508 gAi/ha
Avena sterilis [16]
  GR50: 169 gAi/ha
Avena sterilis [17]
  GR50: 1219 gAi/ha
Avena sterilis [18]
  GR50: >1312 gAi/ha
Avena sterilis [19]
  GR50: <41 gAi/ha
Avena sterilis [20]
  GR50: >1312 gAi/ha
Avena sterilis [21]
  Survival: 20%
Avena sterilis [22]
  Survival: 100%
Avena sterilis [23]
  Survival: 0%
Avena sterilis [24]
  Survival: 83%
Avena sterilis [25]
  Survival: 0%
Avena sterilis [26]
  Survival: 0%
Avena sterilis [27]
  Survival: 73%
Avena sterilis [28]
  Survival: 87%
Avena sterilis [29]
  Survival: 90%
Avena sterilis [30]
  Survival: 80%
Avena sterilis [31]
  Survival: 0%
Avena sterilis [32]
  Survival: 57%
Avena sterilis [33]
  Survival: 40%
Avena sterilis [34]
  Survival: 27%
Avena sterilis [35]
  Survival: 97%
Avena sterilis [36]
  Survival: 83%
Avena sterilis [37]
  Survival: 0%
Avena sterilis [38]
  Survival: 73%
Avena sterilis [39]
  Survival: 0%
Avena sterilis [40]
  Survival: 13%
Avena sterilis [41]
  Survival: 73%
Avena sterilis [42]
  Survival: 87%
Avena sterilis [43]
  Survival: 70%
Avena sterilis [44]
  Survival: 97%
Avena sterilis [45]
  Survival: 20%
Avena sterilis [46]
  Survival: 60%
Avena sterilis [47]
  Survival: 97%
Avena sterilis [48]
  Survival: 80%
Avena sterilis [49]
  Survival: 60%
Avena sterilis [50]
  Survival: 10%
Avena sterilis [51]
  Survival: 50%
Avena sterilis [52]
  Survival: 87%
Avena sterilis [53]
  Survival: 97%
Avena sterilis [54]
  Survival: 20%
Avena sterilis [55]
  Survival: 0%
Avena sterilis [56]
  Survival: 93%
Avena sterilis [57]
  Survival: 100%
Avena sterilis [58]
  Survival: 87%
